Patent US12246008B2, “4-amino or 4-alkoxy-substituted aryl sulfonamide compounds with selective activity in voltage-gated sodium channels” (Merck Sharp & Dohme LLC, priority 2018, dated 2025)
Like-named read-outs stand apart in the source and are kept apart here.

Key:
Test in all cases: Qube automated patch-clamp assay, inhibition of sodium current
Type in all cases: cell-based
[1] = target: T1, human Nav1.7 channels stably expressed in HEK 293 cells (Homo sapiens, UniProt Q15858); settings: max concentration tested 33750 nM, read-out: NaV1.7 (nM)
T1 construct: expressed in transfected cells; host or cells: HEK 293
T1 sequence (Q15858 whole entry): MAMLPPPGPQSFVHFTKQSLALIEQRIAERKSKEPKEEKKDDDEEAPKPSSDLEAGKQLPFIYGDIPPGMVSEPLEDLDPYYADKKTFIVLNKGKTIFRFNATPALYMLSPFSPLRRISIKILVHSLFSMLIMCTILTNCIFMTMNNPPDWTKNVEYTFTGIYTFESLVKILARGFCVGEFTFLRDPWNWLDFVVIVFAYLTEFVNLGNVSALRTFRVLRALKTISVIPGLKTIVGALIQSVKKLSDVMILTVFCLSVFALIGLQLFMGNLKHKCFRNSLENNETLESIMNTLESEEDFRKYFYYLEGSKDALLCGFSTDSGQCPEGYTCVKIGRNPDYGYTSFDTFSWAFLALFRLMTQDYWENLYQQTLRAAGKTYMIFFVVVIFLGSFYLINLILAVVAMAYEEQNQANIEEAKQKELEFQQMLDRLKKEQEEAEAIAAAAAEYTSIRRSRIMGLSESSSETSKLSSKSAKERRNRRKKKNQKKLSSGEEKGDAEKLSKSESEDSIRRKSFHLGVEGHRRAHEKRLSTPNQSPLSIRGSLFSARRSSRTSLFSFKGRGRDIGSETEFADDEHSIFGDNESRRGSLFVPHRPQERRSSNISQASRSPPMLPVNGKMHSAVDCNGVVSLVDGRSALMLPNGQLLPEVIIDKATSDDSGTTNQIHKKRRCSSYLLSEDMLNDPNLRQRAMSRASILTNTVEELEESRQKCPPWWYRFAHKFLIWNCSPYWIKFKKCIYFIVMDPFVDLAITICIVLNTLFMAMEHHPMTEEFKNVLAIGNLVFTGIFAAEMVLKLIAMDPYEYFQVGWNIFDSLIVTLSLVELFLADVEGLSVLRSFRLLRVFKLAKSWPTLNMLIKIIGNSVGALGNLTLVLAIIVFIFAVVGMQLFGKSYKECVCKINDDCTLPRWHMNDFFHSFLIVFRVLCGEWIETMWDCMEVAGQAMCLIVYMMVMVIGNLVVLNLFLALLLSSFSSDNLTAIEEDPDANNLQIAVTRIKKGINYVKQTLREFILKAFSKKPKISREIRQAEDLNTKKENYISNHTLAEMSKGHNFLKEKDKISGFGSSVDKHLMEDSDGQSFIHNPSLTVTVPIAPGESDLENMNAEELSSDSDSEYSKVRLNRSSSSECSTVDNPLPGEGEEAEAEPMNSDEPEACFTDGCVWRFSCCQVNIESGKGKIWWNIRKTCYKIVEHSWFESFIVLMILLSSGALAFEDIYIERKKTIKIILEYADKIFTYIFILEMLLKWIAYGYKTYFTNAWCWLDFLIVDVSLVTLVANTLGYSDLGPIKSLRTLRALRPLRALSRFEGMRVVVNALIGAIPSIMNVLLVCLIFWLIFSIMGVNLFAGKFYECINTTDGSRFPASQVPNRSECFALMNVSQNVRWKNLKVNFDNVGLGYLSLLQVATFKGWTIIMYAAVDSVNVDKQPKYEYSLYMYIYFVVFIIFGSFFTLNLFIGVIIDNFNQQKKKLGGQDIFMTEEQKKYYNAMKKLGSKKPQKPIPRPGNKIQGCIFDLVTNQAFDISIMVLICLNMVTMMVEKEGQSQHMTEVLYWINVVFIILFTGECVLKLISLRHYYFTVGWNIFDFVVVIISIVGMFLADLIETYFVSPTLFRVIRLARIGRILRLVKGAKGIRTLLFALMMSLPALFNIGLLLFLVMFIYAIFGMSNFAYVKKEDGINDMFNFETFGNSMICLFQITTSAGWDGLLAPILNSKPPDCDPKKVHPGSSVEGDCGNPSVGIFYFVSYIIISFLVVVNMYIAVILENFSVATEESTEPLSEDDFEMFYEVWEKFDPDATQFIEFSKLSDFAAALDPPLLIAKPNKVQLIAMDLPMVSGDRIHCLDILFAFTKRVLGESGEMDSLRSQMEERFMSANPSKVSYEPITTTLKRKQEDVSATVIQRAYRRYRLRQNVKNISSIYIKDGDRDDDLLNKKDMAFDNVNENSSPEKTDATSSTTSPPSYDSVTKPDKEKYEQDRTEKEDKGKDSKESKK
Protocol: (§1) Qube™ Experimental Procedure:
(§2) Compounds were tested on human Nav1.7 and Nav1.6 channels stably expressed in HEK 293 cells. […] Cells were sealed on a planar substrate using the multihole technology. Cells expressing human Nav1.7 channels were held at −75 mV or −80 mV. Cells expressing human Nav1.6 channels were held at −65 mV. A train of 6 consecutive test pulses to −10 mV, preceded by 8 s prepulses to −115 mV, was applied at a frequency of 0.1 Hz before and after compound addition. Cells in each Qchip well were incubated in compound for 5 minutes before measuring inhibition. Peak currents were measured in control conditions and after compound addition. The following recording solutions were used (mM). External Nav1.6: 150 NaCl, 2 CaCl2), 5 KCl, 1 Mg Cl2, 10 HEPES, 12 Dextrose; external Nav1.7: 40 NaCl, 120 NMDG, 1 KCl, 0.5 MgCl2, 5 HEPES, 2.7 CaCl2); internal: 120 CsF, 30 CsCl, 10 EGTA, 5 HEPES, 5 NaF, 2 MgCl2. Compounds were prepared as 10 mM stock solutions in DMSO. 10 point compound titrations were generated using the Echo acoustic liquid handling instrument and glass coated 384 well plates. The final DMSO concentration in the assay was 0.3%. For all electrophysiology experiments, offline analysis was used to determine percent inhibition as a function of drug concentration. IC50 values were determined by fitting to the Hill equation.
(§3) The various compounds in EXAMPLES 1 through 43 and TABLE 2 exemplified above were assayed for activity and selectivity using the foregoing Qube® technique. The results are reported in TABLE 3 in a format expressing the identification of the compound with reference EXAMPLE followed by the observed potency in nM for NaV1.7, NaV1.6 and NaV1.5. NA signifies not applicable and the max concentration tested is 33750 nM.

[2] = target: T2, human Nav1.6 channels stably expressed in HEK 293 cells (Homo sapiens, UniProt Q9UQD0); settings: holding potential −65 mV; max concentration tested 33750 nM
T2 construct: expressed in transfected cells; host or cells: HEK 293
Protocol: as §1, §2, §3

NaV1.5 = NaV1.5 (Homo sapiens, UniProt Q14524); settings: holding potential −80 mV; max concentration tested 33750 nM
Sequence of NaV1.5 (Q14524 whole entry): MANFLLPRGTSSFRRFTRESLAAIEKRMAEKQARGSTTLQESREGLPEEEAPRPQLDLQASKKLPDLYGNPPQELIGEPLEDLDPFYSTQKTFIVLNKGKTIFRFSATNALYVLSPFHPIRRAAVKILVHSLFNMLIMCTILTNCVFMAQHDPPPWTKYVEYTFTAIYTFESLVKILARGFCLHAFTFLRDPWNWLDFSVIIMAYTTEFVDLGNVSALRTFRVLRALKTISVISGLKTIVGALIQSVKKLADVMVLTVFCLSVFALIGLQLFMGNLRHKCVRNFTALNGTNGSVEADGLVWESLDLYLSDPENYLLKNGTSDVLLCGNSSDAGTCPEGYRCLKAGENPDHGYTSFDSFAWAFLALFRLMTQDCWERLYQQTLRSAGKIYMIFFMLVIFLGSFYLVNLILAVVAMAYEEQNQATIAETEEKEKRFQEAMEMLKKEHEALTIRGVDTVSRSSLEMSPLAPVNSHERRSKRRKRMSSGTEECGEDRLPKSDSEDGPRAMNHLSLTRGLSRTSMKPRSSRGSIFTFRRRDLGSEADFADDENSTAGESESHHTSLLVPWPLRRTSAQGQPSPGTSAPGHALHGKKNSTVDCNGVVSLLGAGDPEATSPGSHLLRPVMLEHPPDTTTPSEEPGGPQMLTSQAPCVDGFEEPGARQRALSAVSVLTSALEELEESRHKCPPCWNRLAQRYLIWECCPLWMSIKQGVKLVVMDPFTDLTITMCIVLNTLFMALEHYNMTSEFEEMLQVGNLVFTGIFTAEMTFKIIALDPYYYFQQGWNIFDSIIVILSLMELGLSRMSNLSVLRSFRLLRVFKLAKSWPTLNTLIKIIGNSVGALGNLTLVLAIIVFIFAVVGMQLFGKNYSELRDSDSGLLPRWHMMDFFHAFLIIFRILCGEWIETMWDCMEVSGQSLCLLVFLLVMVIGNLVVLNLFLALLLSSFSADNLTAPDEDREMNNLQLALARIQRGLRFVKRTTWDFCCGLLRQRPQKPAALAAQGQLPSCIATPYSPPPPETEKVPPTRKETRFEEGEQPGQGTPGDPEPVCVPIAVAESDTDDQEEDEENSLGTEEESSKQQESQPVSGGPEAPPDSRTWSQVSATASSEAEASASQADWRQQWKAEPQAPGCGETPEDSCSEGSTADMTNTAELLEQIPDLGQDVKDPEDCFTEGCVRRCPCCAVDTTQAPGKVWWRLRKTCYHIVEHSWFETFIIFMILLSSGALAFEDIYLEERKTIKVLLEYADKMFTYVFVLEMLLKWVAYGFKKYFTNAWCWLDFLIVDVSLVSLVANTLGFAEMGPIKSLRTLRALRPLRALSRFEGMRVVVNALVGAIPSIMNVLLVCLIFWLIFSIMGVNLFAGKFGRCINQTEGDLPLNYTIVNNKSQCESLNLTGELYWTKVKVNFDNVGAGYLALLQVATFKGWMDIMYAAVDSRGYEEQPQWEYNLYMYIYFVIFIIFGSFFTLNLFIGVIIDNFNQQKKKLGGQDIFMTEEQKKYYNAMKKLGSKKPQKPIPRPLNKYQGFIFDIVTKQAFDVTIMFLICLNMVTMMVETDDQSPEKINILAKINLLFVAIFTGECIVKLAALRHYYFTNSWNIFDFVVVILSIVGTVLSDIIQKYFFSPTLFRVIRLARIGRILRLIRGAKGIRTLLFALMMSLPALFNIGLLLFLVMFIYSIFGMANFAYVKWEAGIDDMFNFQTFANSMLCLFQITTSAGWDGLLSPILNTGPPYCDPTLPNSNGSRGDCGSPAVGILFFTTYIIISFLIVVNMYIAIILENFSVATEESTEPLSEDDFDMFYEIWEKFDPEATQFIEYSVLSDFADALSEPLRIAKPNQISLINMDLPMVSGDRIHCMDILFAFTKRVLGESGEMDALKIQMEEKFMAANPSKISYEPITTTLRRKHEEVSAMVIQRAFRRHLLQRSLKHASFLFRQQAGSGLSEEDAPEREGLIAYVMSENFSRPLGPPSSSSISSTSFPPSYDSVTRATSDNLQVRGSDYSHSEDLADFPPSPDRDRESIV
Protocol: as §2, §3

[3] = holding potential −75 mV, −75 mV
[4] = holding potential −80 mV, −80 mV

## C[C@@H](N)[C@H](CNc1cc(F)c(S(=O)(=O)Nc2ncns2)cc1Cl)CC(N)C(F)(F)F (single isomer, unassigned) [Example 1]
[1]; [3]
  IC50: 203 nM
[2]
  IC50: 20400 nM

## C[C@@H](N)[C@H](CNc1cc(F)c(S(=O)(=O)Nc2ncns2)cc1Cl)CC(N)C(F)(F)F (single isomer, unassigned) [Example 2]
NaV1.5
  IC50: > 33800 nM
[1]; [3]
  IC50: 84 nM
[2]
  IC50: 13800 nM

## C[C@@H](N)C(CNc1cc(F)c(S(=O)(=O)Nc2ncns2)cc1Cl)CC(C)(C)CN (single isomer, unassigned) [Example 3]
NaV1.5
  IC50: > 33800 nM
[1]; [3]
  IC50: 41 nM
[2]
  IC50: > 33800 nM

## C[C@@H](N)C(COc1ncc(S(=O)(=O)Nc2ncc(F)s2)cc1Cl)CC1(CCN)CCC1 (single isomer, unassigned) [Example 6]
[1]; [3]
  IC50: 93 nM
[2]
  IC50: > 33800 nM

## C[C@@H](N)C(CNc1ncc(S(=O)(=O)Nc2ncc(F)s2)cc1Cl)CC1(CCN)CCC1 (single isomer, unassigned) [Example 8]
[1]; [3]
  IC50: 18 nM
[2]
  IC50: > 33800 nM

## C[C@@H](N)C(CNc1cc(F)c(S(=O)(=O)Nc2ncns2)cc1F)CC1CC(C)(C)CN1 (single isomer, unassigned) [Example 14]
[1]; [4]
  IC50: > 33800 nM

## C[C@@H](N)C(CNc1cc(F)c(S(=O)(=O)Nc2ncns2)cc1F)CC1CC(C)(C)CN1 (single isomer, unassigned) [Example 17]
NaV1.5
  IC50: > 33800 nM
[1]; [4]
  IC50: 113 nM
[2]
  IC50: > 33800 nM

## C[C@@H](N)[C@H](CNc1ccc(S(=O)(=O)Nc2ncns2)c(F)c1)CC(CCN)C1CC1 (single isomer, unassigned) [Example 19]
NaV1.5
  IC50: > 33800 nM
[1]; [3]
  IC50: 31 nM
[2]
  IC50: > 33800 nM

## C[C@@H](N)[C@H](CNc1ccc(S(=O)(=O)Nc2ncns2)c(F)c1)CC(CCN)C1CC1 (single isomer, unassigned) [Example 20]
[1]; [4]
  IC50: 1390 nM

## CC[C@@H](N)C(CNc1cc(F)c(S(=O)(=O)Nc2ncns2)c(F)c1F)CC1(CCN)CCC1 (single isomer, unassigned) [Example 21]
[1]; [4]
  IC50: 916 nM

## CC[C@@H](N)C(CNc1cc(F)c(S(=O)(=O)Nc2ncns2)c(F)c1F)CC1(CCN)CCC1 (single isomer, unassigned) [Example 22]
NaV1.5
  IC50: > 33800 nM
[1]; [4]
  IC50: 26 nM
[2]
  IC50: 12100 nM

## C[C@@H](N)C(CNc1cc(F)c(S(=O)(=O)Nc2ncns2)cc1F)CC1CCCC12CNC2 (single isomer, unassigned) [Example 24]
[1]; [4]
  IC50: > 33800 nM

## C[C@@H](N)C(CNc1cc(F)c(S(=O)(=O)Nc2ncns2)cc1F)CC1CCCC12CNC2 (single isomer, unassigned) [Example 25]
NaV1.5
  IC50: > 33800 nM
[1]; [4]
  IC50: 83 nM
[2]
  IC50: > 33800 nM

## C[C@@H](N)[C@H](CNc1cc(F)c(S(=O)(=O)Nc2ncns2)cc1Cl)C[C@@H]1C[C@@H]1CN (single isomer, unassigned) [Example 33]
[1]; [3]
  IC50: 156 nM
[2]
  IC50: > 33800 nM

## C[C@@H](N)C(CNc1cc(F)c(S(=O)(=O)Nc2ncns2)cc1F)C(N)C1CCC1 (single isomer, unassigned) [Example 34]
NaV1.5
  IC50: > 33800 nM
[1]; [3]
  IC50: 77 nM
[2]
  IC50: > 33800 nM

## CC(C)NCC(CNc1cc(F)c(S(=O)(=O)Nc2ncns2)cc1Cl)[C@@H](C)N (single isomer, unassigned) [Example 36]
NaV1.5
  IC50: > 33800 nM
[1]; [3]
  IC50: 82 nM
[2]
  IC50: > 33800 nM

## CC(C)NCC(CNc1cc(F)c(S(=O)(=O)Nc2ncns2)cc1Cl)[C@@H](C)N (single isomer, unassigned) [Example 37]
[1]; [3]
  IC50: 6760 nM
[2]
  IC50: > 33800 nM

## C[C@@H](N)[C@@H](CC(C)(C)CCN)C1CCc2cc(S(=O)(=O)Nc3ncns3)c(F)cc2O1 (single isomer, unassigned) [Example 41]
[1]; [4]
  IC50: 13700 nM

## C[C@@H](N)C(CNc1cc(F)c(S(=O)(=O)Nc2ncns2)cc1F)CC1CCCC1CN (single isomer, unassigned) [Example 47]
[1]; [4]
  IC50: 3610 nM
[2]
  IC50: > 33800 nM

## C[C@@H](N)C(CNc1cc(F)c(S(=O)(=O)Nc2ncns2)cc1F)CC1(C)CCC1CN (single isomer, unassigned) [Example 52]
[1]; [4]
  IC50: 12300 nM
[2]
  IC50: > 33800 nM

## C[C@@H](N)C(CNc1cc(F)c(S(=O)(=O)Nc2ncns2)cc1F)CC1(C)CCC1CN (single isomer, unassigned) [Example 55]
[1]; [4]
  IC50: 1060 nM
[2]
  IC50: > 33800 nM

## C[C@@H](N)C(CNc1cc(F)c(S(=O)(=O)Nc2ncns2)cc1Br)CC1(CCN)CC(F)(F)C1 (single isomer, unassigned) [Example 56]
[1]; [4]
  IC50: > 33800 nM

## C[C@@H](N)C(CNc1cc(F)c(S(=O)(=O)Nc2ncns2)cc1F)CC1CCCCC1CCN (single isomer, unassigned) [Example 64]
[1]; [4]
  IC50: 14600 nM
[2]
  IC50: > 33800 nM

## C[C@@H](N)C(CNc1cc(F)c(S(=O)(=O)Nc2ncns2)cc1F)CC1CCCCC1CCN (single isomer, unassigned) [Example 66]
[1]; [4]
  IC50: 12600 nM
[2]
  IC50: > 33800 nM

## C[C@@H](N)C(CNc1cc(F)c(S(=O)(=O)Nc2ncns2)cc1F)CC1CCCCC1CCN (single isomer, unassigned) [Example 67]
[1]; [4]
  IC50: > 33800 nM
[2]
  IC50: > 33800 nM

## C[C@@H](N)C(CNc1cc(F)c(S(=O)(=O)Nc2ncns2)cc1F)CC1CNCC1(C)C (single isomer, unassigned) [Example 76]
[1]; [4]
  IC50: 328 nM
[2]
  IC50: > 33800 nM

## COC(CN)C[C@@H](CNc1cc(F)c(S(=O)(=O)Nc2ncns2)cc1Br)[C@@H](C)N (single isomer, unassigned) [Example 81]
[1]; [4]
  IC50: 87 nM
[2]
  IC50: > 33800 nM

## COC(CN)C[C@@H](CNc1cc(F)c(S(=O)(=O)Nc2ncns2)cc1Br)[C@@H](C)N (single isomer, unassigned) [Example 82]
[1]; [4]
  IC50: 1760 nM

## C[C@@H](N)C(CNc1ccc(S(=O)(=O)Nc2ncns2)cc1F)CC1(N)CCC1 (single isomer, unassigned) [Example 89]
[1]; [3]
  IC50: 274 nM
[2]
  IC50: > 33800 nM

## C[C@@H](N)C(COc1cc(F)c(S(=O)(=O)Nc2ncns2)cc1F)CC1(CCN)CCC1 (single isomer, unassigned) [Example 95]
[1]; [4]
  IC50: 4130 nM
[2]
  IC50: > 33800 nM

## C[C@@H](N)C(CNc1cc(F)c(S(=O)(=O)Nc2ncns2)cc1F)C[C@@]1(C)CCC[C@@H]1CN (single isomer, unassigned) [Example 96]
[1]; [3]
  IC50: 618 nM
[2]
  IC50: > 33800 nM

## C[C@@H](N)C(CNc1cc(F)c(S(=O)(=O)Nc2ncns2)cc1F)C[C@]1(C)CCC[C@H]1CN (single isomer, unassigned) [Example 98]
[1]; [4]
  IC50: 2360 nM
[2]
  IC50: > 33800 nM

## C[C@@H](N)C(CNc1cc(F)c(S(=O)(=O)Nc2ncns2)cc1F)C[C@]1(C)CCC[C@H]1CN (single isomer, unassigned) [Example 99]
[1]; [4]
  IC50: 450 nM
[2]
  IC50: > 33800 nM

## C[C@@H](N)C(CNc1cc(F)c(S(=O)(=O)Nc2ncns2)cc1Cl)CC1COCCN1 (single isomer, unassigned) [Example 101]
[1]; [3]
  IC50: 84 nM
[2]
  IC50: > 33800 nM

## C[C@@H](N)C(CNc1cc(F)c(S(=O)(=O)Nc2ncns2)cc1Cl)CC1COCCN1 (single isomer, unassigned) [Example 104]
[1]; [3]
  IC50: 305 nM
[2]
  IC50: > 33800 nM

## CC(C)C(N)CC(CNc1cc(F)c(S(=O)(=O)Nc2ncns2)cc1Br)[C@@H](C)N (single isomer, unassigned) [Example 108]
[1]; [3]
  IC50: 17 nM
[2]
  IC50: > 33800 nM

## C[C@@H](N)[C@H](CNc1ncc(S(=O)(=O)Nc2ncns2)cc1C(F)(F)F)CC(C)(C)CCN [Example 13, 6-(((S)-6-amino-2-((R)-1-aminoethyl)-4,4-dimethylhexyl)amino)-N-(1,2,4-thiadiazol-5-yl)-5-(trifluoromethyl)pyridine-3-sulfonamide]
[1]; [3]
  IC50: 230 nM
[2]
  IC50: > 33800 nM

## C[C@@H](N)[C@H](CNc1ncc(S(=O)(=O)Nc2ncns2)cc1C#N)CC(C)(C)CCN [Example 31, 6-(((S)-6-amino-2-((R)-1-aminoethyl)-4,4-dimethylhexyl)amino)-5-cyano-N-(1,2,4-thiadiazol-5-yl)pyridine-3-sulfonamide]
[1]; [3]
  IC50: 205 nM
[2]
  IC50: > 33800 nM

## C[C@@H](N)[C@H](CNc1cc(F)c(S(=O)(=O)Nc2cccc(F)n2)cc1Cl)CC1(N)CCC1 [Example 105]
[1]; [3]
  IC50: 14 nM
[2]
  IC50: 8340 nM

## Cc1csc(NS(=O)(=O)c2cc(Cl)c(NC[C@H](CC(C)(C)N)[C@@H](C)N)cc2F)n1 [Example 106]
[1]; [3]
  IC50: 133 nM
[2]
  IC50: > 33800 nM

## Cc1cc(S(=O)(=O)Nc2ncc(F)s2)c(F)cc1NC[C@H](CC(C)(C)N)[C@@H](C)N [Example 107]
[1]; [3]
  IC50: 17 nM
[2]
  IC50: 3590 nM
